What all share (assay type): in vivo
Experiment [1] relates to Male SD rats. The experiment in a line: Rat nicotine self administration, acute treatment. The procedure: Male SD rats were trained to self administer i.v. nicotine (0.03 mg/kg/inj) daily (Monday to Friday) in standard operant chambers with retractable levers (MED Associates, Inc) as previously published (Levin et al., 2003; Levin et al., 2007). During the daily 45 min session, rats received 0.05 ml infusion of 0.03 mg/kg/infusion of nicotine every time the active lever was pressed. A cue light and tone turned on for 0.5 sec together with the activation of a pump that delivered the nicotine solution. Daily sessions were run for at least 10 days before the initiation of drug testing. Solutions of compounds of Example 2 and Example 5 were prepared fresh daily in Formulation 2B: 25% PEG400/5% Vit E TPGS/1% SLS/69% water with 0.5% Methocel) for oral dosing. Compound of Example 2 doses were administered in a counterbalanced design for testing 1 hr before each nicotine session. Every rat received all drug doses and vehicle in a randomly assigned order. The oral drug administrations were made twice per week.
Compound of Example 5 was tested in a study using 4 independent groups. Each group received either oral vehicle or 1 of the 3 doses of compound of Example 5 (5, 10 or 30 mg-eq/kg). […] The 5 mg/kg dose was ineffective.

In experiment [2] the test system is male Sprague Dawley (SD) rats. The experiment in a line: Rat cocaine cue reinstatement. To be noted: for inhibition of cocaine cue reinstatement vs vehicle: 1 hr before session. The procedure:
Training of male Sprague Dawley (SD) rats had 3 separate stages. First, during self administration, animals were trained to lever press for cocaine with presentation of concomitant cues associated with drug delivery. Rats that reached criteria for addiction were included in the study. Afterward, during cue extinction, cocaine-cue dependent behavior was extinguished. Lastly, during cocaine cue reinstatement, the effect of compounds was tested on lever presses upon cue presentation (FIG. 2).
Rats were trained to self administer i.v. cocaine (0.35 mg/kg/injection) daily (Monday to Friday) in standard operant chambers with retractable levers (Coulbourn Instruments, PA). During the daily 2 hr session, rats received a 0.05 ml infusion of 0.35 mg/kg cocaine every time the active lever was pressed. A cue light and tone turned on for 2 sec together with activation of a pump that delivered the cocaine solution. Rats were required to maintain an infusion rate of ≥20+ per day for at least 10 days before being moved to extinction training.
During extinction sessions lever presses no longer produced cocaine infusion and cue light/tone presentation was absent. Rats received a maximum of 15 extinction sessions.
On the next day after reaching extinction criteria, rats were treated orally with vehicle (Formulation 2B: 25% PEG400/5% Vit E TPGS/1% SLS/69% water with 0.5% Methocel) or drug (compound of Example 2 or compound of Example 5) before the cue reinstatement session. Cue reinstatement began with a tone and cue light. This 2 hr session was identical to the self-administration session (cue light and tone present upon active lever press) except that no cocaine was delivered. The number of active lever presses was compared to extinction lever responding. This is considered a measure of reinstatement. The next day, rats were returned to extinction sessions for at least 2 or 3 more sessions. Rats then received a second and last reinstatement session with an opposite treatment to the one received on the first reinstatement session (vehicle or drug treatment). […] The light/tone presentation triggers this response and it is interpreted as a measure of reinstatement even though cocaine is not available.

Experiment [3] concerns Male SD rats. The experiment is described as follows: Rat nicotine self administration, 7-day chronic treatment. The settings on record: 7 consecutive days. The procedure:
Upon completion of the acute compound of Example 5 treatment study, the same animals were used to test the effect of 7-day chronic oral administration of compound of Example 5 in the nicotine self administration model. Rats were treated orally with compound of Example 5 (5, 10 or 30 mg-eq/kg) or vehicle 1 hr before nicotine self administration session for 7 consecutive days. […] Similar to the acute treatment, the 5 mg-eq/kg dose was ineffective (FIG. 7). […] Animals in nicotine self administration studies had to reach pre defined criteria (e.g. rat strain, minimum number of nicotine infusions, consistent baseline nicotine self administration throughout the study, patent iv catheters, etc.) to be included in analysis.

Results on two compounds are retold here after patent US10507215B2, “Compounds for the treatment of addiction” (Amygdala Neurosciences, Inc., priority 2011, dated 2019).

Molecules are shown by their SMILES.

Consider `O=C(NCc1ccc(-c2cc[nH]c(=O)c2)cc1)c1c(Cl)cccc1Cl` [Compound 2, 2,6-dichloro-N-[4-(2-oxo-1,2-dihydro-pyridin-4-yl)-benzyl]-benzamide], for which the “effect on number of nicotine infusions” value with Male SD rats [1] (1 mg/kg oral) and in the experiment with Male SD rats [1] (5 mg/kg oral) was “without effect” in each case.
As to `O=C(NCc1ccc(-c2ccn(COP(=O)(O)O)c(=O)c2)cc1)c1c(Cl)cccc1Cl` [Compound 14, phosphoric acid mono-(4-{4-[(2,6-dichloro-benzoylamino)-methyl]-phenyl}-2-oxo-2H-pyridin-1-ylmethyl) ester], the “effect on cocaine cue reinstatement” value in experiment [2] (2.5 mg-eq/kg oral, lowest dose tested) is recorded as “not significantly different from vehicle”. Besides, the “inhibition of cocaine cue reinstatement vs vehicle” value in experiment [2] (2.5 mg/kg eq oral, N.S.) is 30%; in experiment [2] (5 mg-eq/kg oral), 59%; in experiment [2] (10 mg-eq/kg oral) it was 55%; in experiment [2] (30 mg-eq/kg oral), 50%. Further, the “effect on number of nicotine infusions” value was “ineffective” in the experiment on Male SD rats [1] (5 mg/kg dose oral, independent groups) and “ineffective” in the experiment on Male SD rats [3] (5 mg-eq/kg oral). The “inhibition of number of nicotine infusions vs vehicle” value in the experiment with Male SD rats [1] (10 mg-eq/kg oral, independent groups) is on record as 51%; in the experiment with Male SD rats [1] (30 mg-eq/kg oral, independent groups) it was 68%; with Male SD rats [3] (10 mg-eq/kg oral), 48%; with Male SD rats [3] (30 mg-eq/kg oral), 62%.
